Data published in article doi:10.1101/2022.02.09.479835v1 (biorxiv, 2022).
Where a SMILES comes first, the peptide text is derived from it. The star is where a group is joined. Cbz = O=C(OCc1ccccc1)*

Molecular target: 3CL-Pro (Severe acute respiratory syndrome coronavirus 2, UniProt P0DTD1)
Assay: biochemical
Settings: not given

Row | Structure (SMILES) | IC50 [µM]
1 | C[C@H](NC(=O)[C@H](Cc1ccccc1)NC(=O)OCc1ccccc1)C(=O)CF [Z-FA-FMK] | 9.67

Molecular target: human CatL (cathepsin-L, CTSL) (Homo sapiens, UniProt P07711)
Sequence (P07711 114-288): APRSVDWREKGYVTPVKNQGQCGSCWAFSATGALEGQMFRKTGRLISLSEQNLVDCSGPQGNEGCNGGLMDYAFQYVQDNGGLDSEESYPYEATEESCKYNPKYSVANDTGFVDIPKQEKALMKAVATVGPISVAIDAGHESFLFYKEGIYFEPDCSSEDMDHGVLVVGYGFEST
Sequence (P07711 292-333): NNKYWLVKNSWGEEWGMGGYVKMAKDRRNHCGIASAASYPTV
Assay: FRET peptide cleavage HTS
Assay type: biochemical
Settings: read-out: % inhibition at 20 uM

Row | Structure (SMILES) | inhibition at 20 µM [%]
2 | CC(C)C[C@H](NC(=O)OCc1ccccc1)C(=O)N[C@@H](C[C@@H]1CCNC1=O)C(O)S(=O)(=O)O (stereo partly drawn) [GC-376] | > 50
3 | CC(C)C[C@@H](C=O)NC(=O)[C@H](CC(C)C)NC(=O)[C@H](CC(C)C)NC(=O)OCc1ccccc1 [MG-132] (Cbz-Leu-Leu-Leu-aldehyde) | > 50
4 | C[C@H](NC(=O)[C@H](Cc1ccccc1)NC(=O)OCc1ccccc1)C(=O)CF [Z-FA-FMK] | > 50
5 | CCCN1CCN(c2ccc(C(=O)NC3(C(=O)NCC#N)CCCCC3)cc2)CC1 [balicatib] | > 50
6 | CC(=O)N[C@@H](CC(C)C)C(=O)N[C@@H](CC(C)C)C(=O)N[C@H](C=O)CCCNC(=N)N [leupeptin hemisulfate] | > 50
